Reference: the NIST ThermoML archive (doi:10.1016/j.jct.2007.04.002)

Legend:
[1] = 101.33 kPa, Liquid, Not reported.
[2] = excess molar enthalpy (molar enthalpy of mixing); xn = mol fraction of the nth substance listed; settings: 101 kPa, Liquid, Calvet calorimetry

CCCCCC(C)C [2-methylheptane]
[1]
Settings	molar volume [m3/mol]
288.05 K	0.0001626
298.15 K	0.0001636

CCCCCC(C)C [2-methylheptane] + FC(F)(F)C(F)(F)C(F)(F)C(F)(F)C(F)(F)C(F)(F)F
excess molar enthalpy [kcal/mol], [2]
Settings	288.05 K	298.15 K
x2 = 0	0	0
x2 = 0.05	0.124	0.129
x2 = 0.1	0.223	0.231
x2 = 0.15	0.3	0.313
x2 = 0.2	0.359	0.376
x2 = 0.25	0.404	0.425
x2 = 0.3	0.438	0.462
x2 = 0.35	0.462	0.488
x2 = 0.4	0.478	0.506
x2 = 0.45	0.488	0.516
x2 = 0.5	0.491	0.52
x2 = 0.55	0.488	0.516
x2 = 0.6	0.478	0.505
x2 = 0.65	0.461	0.487
x2 = 0.7	0.436	0.46
x2 = 0.75	0.401	0.422
x2 = 0.8	0.354	0.372
x2 = 0.85	0.293	0.307
x2 = 0.9	0.216	0.226
x2 = 0.95	0.119	0.124

C1CCCCC1 [cyclohexane]
Settings	molar volume [m3/mol]
[1], 298.15 K	0.0001086

C1CCCCC1 [cyclohexane] + FC(F)(F)C(F)(F)C(F)(F)C(F)(F)C(F)(F)C(F)(F)F
Settings	excess molar enthalpy [kcal/mol]
[2], 298.15 K, x2 = 0	0

CCCCCCC [heptane] + FC(F)(F)C(F)(F)C(F)(F)C(F)(F)C(F)(F)C(F)(F)F
Settings	excess molar enthalpy [kcal/mol]
[2], 298.15 K, x2 = 0	0

FC(F)(F)C(F)(F)C(F)(F)C(F)(F)C(F)(F)C(F)(F)C(F)(F)F [hexadecafluoroheptane] + CCCCCC
[2], 298.15 K
Settings	excess molar enthalpy [kcal/mol]
x1 = 0.05	0.15
x1 = 0.1	0.258
x1 = 0.15	0.335
x1 = 0.2	0.39
x1 = 0.25	0.429
x1 = 0.3	0.456
x1 = 0.35	0.474
x1 = 0.4	0.487
x1 = 0.45	0.495
x1 = 0.5	0.497
x1 = 0.55	0.495
x1 = 0.6	0.485
x1 = 0.65	0.467
x1 = 0.7	0.439
x1 = 0.75	0.4
x1 = 0.8	0.348
x1 = 0.85	0.281
x1 = 0.9	0.201
x1 = 0.95	0.107
x1 = 1	0

CCCCCC [hexane] + FC(F)(F)C(F)(F)C(F)(F)C(F)(F)C(F)(F)C(F)(F)C(F)(F)C(F)(F)F
Settings	excess molar enthalpy [kcal/mol]
[2], 298.15 K, x2 = 0	0

CCCCCC [hexane] + FC(F)(F)C(F)(F)C(F)(F)C(F)(F)C(F)(F)C(F)(F)C(F)(F)F
Settings	excess molar enthalpy [kcal/mol]
[2], 298.15 K, x2 = 0	0

CCCCCC [hexane] + FC(F)(F)C(F)(F)C(F)(F)C(F)(F)C(F)(F)C(F)(F)F
Settings	excess molar enthalpy [kcal/mol]
[2], 298.15 K, x2 = 0	0

CCCCCC [hexane] + FC(F)(F)C(F)(F)C(F)(F)C(F)(F)C(F)(F)F
Settings	excess molar enthalpy [kcal/mol]
[2], 293.15 K, x2 = 0	0

FC(F)(F)C(F)(F)C(F)(F)C(F)(F)C(F)(F)C(F)(F)C(F)(F)C(F)(F)F [octadecafluorooctane] + CCCCCC
[2], 298.15 K
Settings	excess molar enthalpy [kcal/mol]
x1 = 0.05	0.183
x1 = 0.1	0.303
x1 = 0.15	0.379
x1 = 0.2	0.422
x1 = 0.25	0.445
x1 = 0.3	0.455
x1 = 0.35	0.456
x1 = 0.4	0.453
x1 = 0.45	0.448
x1 = 0.5	0.44
x1 = 0.55	0.43
x1 = 0.6	0.415
x1 = 0.65	0.394
x1 = 0.7	0.366
x1 = 0.75	0.327
x1 = 0.8	0.279
x1 = 0.85	0.22
x1 = 0.9	0.152
x1 = 0.95	0.0767
x1 = 1	0

CCCCCCCC [octane] + FC(F)(F)C(F)(F)C(F)(F)C(F)(F)C(F)(F)C(F)(F)F
Settings	excess molar enthalpy [kcal/mol]
[2], 298.15 K, x2 = 0	0

CCCCC [pentane] + FC(F)(F)C(F)(F)C(F)(F)C(F)(F)C(F)(F)C(F)(F)F
Settings	excess molar enthalpy [kcal/mol]
[2], 293.15 K, x2 = 0	0

FC(F)(F)C(F)(F)C(F)(F)C(F)(F)C(F)(F)C(F)(F)F [perfluorohexane]
Settings	molar volume [m3/mol]
[1], 288.05 K	0.0001982

FC(F)(F)C(F)(F)C(F)(F)C(F)(F)C(F)(F)C(F)(F)F [perfluorohexane] + C1CCCCC1
[2], 298.15 K
Settings	excess molar enthalpy [kcal/mol]
x1 = 0.05	0.177
x1 = 0.1	0.301
x1 = 0.15	0.385
x1 = 0.2	0.44
x1 = 0.25	0.475
x1 = 0.3	0.498
x1 = 0.35	0.513
x1 = 0.4	0.522
x1 = 0.45	0.528
x1 = 0.5	0.53
x1 = 0.55	0.528
x1 = 0.6	0.519
x1 = 0.65	0.503
x1 = 0.7	0.476
x1 = 0.75	0.436
x1 = 0.8	0.382
x1 = 0.85	0.311
x1 = 0.9	0.224
x1 = 0.95	0.12
x1 = 1	0

FC(F)(F)C(F)(F)C(F)(F)C(F)(F)C(F)(F)C(F)(F)F [perfluorohexane] + CCCCC
[2], 293.15 K
Settings	excess molar enthalpy [kcal/mol]
x1 = 0.05	0.127
x1 = 0.1	0.225
x1 = 0.15	0.3
x1 = 0.2	0.357
x1 = 0.25	0.399
x1 = 0.3	0.431
x1 = 0.35	0.453
x1 = 0.4	0.467
x1 = 0.45	0.475
x1 = 0.5	0.476
x1 = 0.55	0.47
x1 = 0.6	0.457
x1 = 0.65	0.435
x1 = 0.7	0.405
x1 = 0.75	0.365
x1 = 0.8	0.315
x1 = 0.85	0.253
x1 = 0.9	0.18
x1 = 0.95	0.0954
x1 = 1	0

FC(F)(F)C(F)(F)C(F)(F)C(F)(F)C(F)(F)C(F)(F)F [perfluorohexane] + CCCCCC
[2], 298.15 K
Settings	excess molar enthalpy [kcal/mol]
x1 = 0.05	0.133
x1 = 0.1	0.235
x1 = 0.15	0.313
x1 = 0.2	0.372
x1 = 0.25	0.416
x1 = 0.3	0.45
x1 = 0.35	0.473
x1 = 0.4	0.49
x1 = 0.45	0.5
x1 = 0.5	0.503
x1 = 0.55	0.5
x1 = 0.6	0.489
x1 = 0.65	0.469
x1 = 0.7	0.441
x1 = 0.75	0.401
x1 = 0.8	0.35
x1 = 0.85	0.285
x1 = 0.9	0.205
x1 = 0.95	0.11
x1 = 1	0

FC(F)(F)C(F)(F)C(F)(F)C(F)(F)C(F)(F)C(F)(F)F [perfluorohexane] + CCCCCC(C)C
[2], x1 = 1
Settings	excess molar enthalpy [kcal/mol]
288.05 K	0
298.15 K	0

FC(F)(F)C(F)(F)C(F)(F)C(F)(F)C(F)(F)C(F)(F)F [perfluorohexane] + CCCCCCC
[2], 298.15 K
Settings	excess molar enthalpy [kcal/mol]
x1 = 0.05	0.135
x1 = 0.1	0.24
x1 = 0.15	0.321
x1 = 0.2	0.382
x1 = 0.25	0.429
x1 = 0.3	0.463
x1 = 0.35	0.487
x1 = 0.4	0.504
x1 = 0.45	0.513
x1 = 0.5	0.516
x1 = 0.55	0.513
x1 = 0.6	0.503
x1 = 0.65	0.485
x1 = 0.7	0.459
x1 = 0.75	0.421
x1 = 0.8	0.371
x1 = 0.85	0.307
x1 = 0.9	0.225
x1 = 0.95	0.124
x1 = 1	0

FC(F)(F)C(F)(F)C(F)(F)C(F)(F)C(F)(F)C(F)(F)F [perfluorohexane] + CCCCCCCC
[2], 298.15 K
Settings	excess molar enthalpy [kcal/mol]
x1 = 0.05	0.137
x1 = 0.1	0.24
x1 = 0.15	0.315
x1 = 0.2	0.368
x1 = 0.25	0.404
x1 = 0.3	0.428
x1 = 0.35	0.443
x1 = 0.4	0.452
x1 = 0.45	0.457
x1 = 0.5	0.458
x1 = 0.55	0.457
x1 = 0.6	0.452
x1 = 0.65	0.442
x1 = 0.7	0.426
x1 = 0.75	0.401
x1 = 0.8	0.363
x1 = 0.85	0.309
x1 = 0.9	0.234
x1 = 0.95	0.133
x1 = 1	0

FC(F)(F)C(F)(F)C(F)(F)C(F)(F)C(F)(F)F [perfluoropentane] + CCCCCC
[2], 293.15 K
Settings	excess molar enthalpy [kcal/mol]
x1 = 0.05	0.127
x1 = 0.1	0.224
x1 = 0.15	0.298
x1 = 0.2	0.352
x1 = 0.25	0.392
x1 = 0.3	0.42
x1 = 0.35	0.439
x1 = 0.4	0.451
x1 = 0.45	0.456
x1 = 0.5	0.455
x1 = 0.55	0.449
x1 = 0.6	0.436
x1 = 0.65	0.416
x1 = 0.7	0.388
x1 = 0.75	0.352
x1 = 0.8	0.305
x1 = 0.85	0.248
x1 = 0.9	0.178
x1 = 0.95	0.0956
x1 = 1	0
